Patent US20250249013A1, “COMBINATION METABOLIC-EPIGENETIC TREATMENT FOR EARLY LUNG CANCER” (THE REGENTS OF THE UNIVERSITY OF CALIFORNIA, priority 2022, published 2025)

What was measured:
[1] = test system: NCI-H358 cells; assay: EZH2 inhibition with GSK126 in low glucose, western blot; assay type: cell-based, human; conditions: GSK126 0.25 μM
Method: (§1) Human lung cancer A549 (CCL-185) and NCI-H358 (CRL-5807) cells lines were purchased from American Type Culture Collection (ATCC, Manassas, VA). Cells were maintained in culture according to manufacturer protocol using Roswell Park Memorial Institute (RPMI) 1640 medium (Corning, Cat. #10-040CV) supplemented with 10% FBS and 5% 1× Pen-Strep and kept in 37° C. and 5% of CO2. Murine 2953A cell line was established in our lab from a KP lung tumor by tissue dissociation. This cell line was maintained in culture in Dulbecco's modified Eagle Medium (DMEM) medium (Corning, Cat. #10-017CV) with 5% FBS and 5% 1× Pen-Strep.
(§2) All experiments in cell lines were performed in biological triplicate. Cells were seeded at same confluence and grown for 5 days (and for some experiments overnight or up to 9 days or 30 days, as indicated in the figures and text) in different concentration of glucose: high (20 mM), low (1 mM) and for some experiments medium (5 mM), as indicated. We used mediums with glutamine and without glucose: RPMI (Corning Cat. #10-043CV) for A549 and NCI-H358 cells, DMEM (ThermoScientific Cat. #11566025) for 2953A cells, supplemented with 10% FBS, 5% of 1× Pen-Strep and complemented with D-Glucose to the desired final concentration, as indicated in the figures.
(§3) For total protein extraction, cells were harvested, washed twice with ice-cold PBS-EDTA (0.5 mm EDTA), lysed using RIPA buffer (50 mM Tris-HCl pH 7.6, 150 mM NaCl, 0.1% SDS, 0.5% C24H39NaO4, 1% NP-40, 2 mm EDTA, 50 mm NaF) for 15 min on ice and centrifuged at 13,000 rpm for 30 min at +4° C. The resulting protein extracts were quantified using BCA protein assay followed by analysis by SDS-PAGE and Western blotting.
(§4) Histones was extracted from A549, NCI-H358 and 2953A cell lines using the Histone extraction kit (Abcam) according to manufacturer instructions.
(§5) SDS-PAGE and Western blotting analyses were performed using standard protocols. For antibodies information, see Reagents and Tools Table. Western blot images were detected by iBright Imaging Systems (Thermo Fisher Scientific). The protein detected was normalized to Actin or H3 total antibodies, this last in case of histonic extract. Each immunodetection derived from the same membrane was performed with the same exposure times according to the manufacture's antibody guidelines and was cropped only for presentation purposes; this is indicated by a dotted line.

[2] = test system: A549 cells; assay: as above; assay type: cell-based, human; conditions: GSK126 0.25 μM
Method: as §1, §2, §3, §4, §5

[3] = test system: A549 and NCI-H358 cells; assay: RNA-seq, genes regulated consistently in both cell lines; assay type: cell-based, human; conditions: significantly regulated in at least 3 of the four conditions
Method: (§6) A549 and NCI-H358 cell lines were incubated in triplicate with high glucose (20 mM), low glucose (1 mM), and low glucose+dm-αKG (10 mM). Total RNA was extracted as previously described. RNA sequencing was performed by Med Genome. Sample quality control was performed using Quibit fluorometric (Agilent) and Tapestation bioanalyzer (Agilent). For library preparation TruSeq Stranded Total RNA kit (Illumina) was used and libraries were sequenced on NovaSeq platform (Illumina). The FASTQ data generated was used for gene expression analysis, performed as described in Nassa et al (Nassa et al, 2019).
Briefly, the raw sequence files generated (.fastq files) underwent quality control analysis using FASTQC (http://www.bioinformatics.babraham.ac.uk/projects/fastqc/) and adapter sequences were removed using Trimmomatic version 0.38 (Bolger et al, 2014) Filtered reads were aligned on human genome (assembly hg38) considering genes present in GenCode Release 35 (GRCh38.p12) using STAR v2.7.6a (Dobin et al, 2013) with standard parameters. Quantification of expressed genes was performed using featureCounts (Liao et al, 2014) and differentially expressed genes were identified using DESeq2 (Love et al, 2014). A given RNA was considered expressed when detected by at least ≥10 raw reads. […]

[4] = test system: NCI-H358 cells; assay: RNA-seq, low glucose with dm-αKG; assay type: cell-based, human; conditions: NCI-H358, low glucose + dm-αKG 10 mM, five days
Method: as §6
(§7) Briefly, the raw sequence files generated (.fastq files) underwent quality control analysis using FASTQC (http://www.bioinformatics.babraham.ac.uk/projects/fastqc/) and adapter sequences were removed using Trimmomatic version 0.38 (Bolger et al, 2014) Filtered reads were aligned on human genome (assembly hg38) considering genes present in GenCode Release 35 (GRCh38.p12) using STAR v2.7.6a (Dobin et al, 2013) with standard parameters. Quantification of expressed genes was performed using featureCounts (Liao et al, 2014) and differentially expressed genes were identified using DESeq2 (Love et al, 2014). A given RNA was considered expressed when detected by at least ≥10 raw reads.
(§8) Differential expression was reported as Ifold-changel (FC)[…] along with associated adjusted pvalues≤0.05 computed according to Benjamini-Hochberg. Gene Set Enrichment Analysis (GSEA) was performed to examine pathway enrichment for the differential expressed genes with the Molecular Signature Database “Hallmarks” gene set collection (Liberzon et al, 2015). Only those with an FDR […] have been selected.

[5] = test system: A549 cells; assay: RNA-seq, low glucose with dm-αKG; assay type: cell-based, human; conditions: A549, low glucose + dm-αKG 10 mM, five days
Method: as §6, §7, §8

[6] = test system: 2953A cells; assay: αKG rescue in low glucose, western blot and RT-PCR; assay type: cell-based, mouse; conditions: low glucose 5 days
Method: as §1, §2
(§9) All αKG rescue experiments were conducted using 10 mM alpha-ketoglutarate (α-KG; Sigma) and α-Mannitol (Sigma) as osmotic control.
as §3, §4, §5
(§10) Total RNA was extracted from A549, NCI-H358 and 2953A by using TRI Reagent Solution (Applied Biosystem), according to manufacturer instruction. RNA concertation was assayed by Nanodrop 3000 spectrophotometer (Thermo Fisher Scientific). Then, 1 μg of RNA was treated with DNase I (Thermo Fisher Scientific) and used for cDNA preparation.
(§11) cDNA was prepared using 1 μg of RNA with SuperScript IV Reverse Transcriptase (Invitrogen). SYBR green-based RT-PCR kit (Biorad) was performed using human and mouse primers (See Table EV11). mRNA levels were normalized to GAPDH (ΔCt=Ctgene of interest-Ct GAPDH) and presented as relative mRNA expression (ΔΔCt=2-(ΔCtsample-ΔCtcontrol)). All primers were designed by NCBI Primer-BLAST and purchased from Integrated DNA Technologies.

[7] = test system: NCI-H358 cells; assay: αKG rescue in low glucose, western blot and RT-PCR; assay type: cell-based, human
Method: as §1, §2, §9, §3, §4, §5, §10, §11

[8] = test system: A549 cells; assay: αKG rescue in low glucose, western blot and RT-PCR; assay type: cell-based, human
Method: as §1, §2, §9, §3, §4, §5, §10, §11

[9] = test system: LUAD; conditions: genetically engineered murine models and patient-derived xenografts; cited from earlier work
[10] = A549, low glucose (1 mM) 5 days
[11] = NCI-H358, low glucose 5 days, dm-αKG
[12] = NCI-H358, low glucose 5 days, dm-αKG 10 mM
[13] = A549, low glucose 5 days, dm-αKG
[14] = A549, low glucose 5 days, dm-αKG 10 mM

Q: For `CC[C@H](C)n1cc(C)c2c(C(=O)NCc3c(C)cc(C)[nH]c3=O)cc(-c3ccc(N4CCNCC4)nc3)cc21` [GSK126], which EZH2 activity [1] is on record?
A: Its EZH2 activity is “inhibited”.

Q: And the “expression of FoxA2, western blot” value [1]?
A: The value was “rescued”.

Q: What about the “tri-methylation of H3K27, western blot” value [1] of the same compound?
A: Its value is “rescued”.

Q: What about the “expression of FoxA2, western blot” value [2, 10] of the same compound?
A: Its value is “rescued”.

Q: And the “tri-methylation of H3K27, western blot” value [2, 10]?
A: Its value is “rescued”.

Q: What about the EZH2 activity ([2]; A549, low glucose) of the same compound?
A: Its EZH2 activity is “inhibited”.

Q: Which results are given for `COC(=O)CCC(=O)C(=O)OC` [dm-αKG, dimethyl-αKG]?
A: genes down-regulated by low glucose consistently in both cell lines and rescued by dm-αKG [3]: 445 genes; genes up-regulated by low glucose consistently in both cell lines and rescued by dm-αKG [3]: 524 genes; number of low glucose down-regulated genes rescued by dm-αKG ([4]; 942 genes down-regulated by low glucose): 370 genes; number of low glucose up-regulated genes rescued by dm-αKG ([4]; 1,335 genes up-regulated by low glucose): 510 genes; number of low glucose down-regulated genes rescued by dm-αKG ([5]; 2,024 genes down-regulated by low glucose): 1,431 genes; number of low glucose up-regulated genes rescued by dm-αKG ([5]; 2,394 genes up-regulated by low glucose): 1,634 genes; H3K4 hyper-methylation, western blot on histone extracts ([6]; dm-αKG): reverse; H3K9 hyper-methylation, western blot on histone extracts ([6]; dm-αKG): reverse; H3K27 hyper-methylation, western blot on histone extracts ([6]; dm-αKG): reverse; H3K27 hypo-acetylation, western blot on histone extracts ([6]; dm-αKG): reverse; GLUT1 expression, qPCR ([6]; dm-αKG 10 mM): reduced; low glucose-induced inhibition of FoxA2 mRNA, qPCR ([6]; dm-αKG 10 mM): rescued; low glucose-induced reduction in FOXA2 protein, western blot ([6]; dm-αKG 10 mM): rescued; HIF1α and HIF2α protein, western blot, control condition ([7]; NCI-H358, cells growing in low glucose (so in the source), dm-αKG): did not have any effect; H3K4 hyper-methylation, western blot on histone extracts [7, 11]: reverse; H3K9 hyper-methylation, western blot on histone extracts [7, 11]: reverse; H3K27 hyper-methylation, western blot on histone extracts [7, 11]: reverse; H3K27 hypo-acetylation, western blot on histone extracts [7, 11]: reverse; low glucose-induced increase of Slug, western blot [7, 11]: rescued; low glucose-induced repression of PHD3 expression, RT-PCR [7, 11]: rescued; low glucose-induced up-regulation of HIF1α mRNA, RT-PCR [7, 11]: rescued; low glucose-induced up-regulation of HIF1α protein, western blot [7, 11]: reversed; low glucose-induced up-regulation of HIF2α mRNA, RT-PCR [7, 11]: rescued; low glucose-induced up-regulation of HIF2α protein, western blot [7, 11]: reversed; GLUT1 expression, qPCR [7, 12]: reduced; low glucose-induced inhibition of FoxA2 mRNA, qPCR [7, 12]: rescued; low glucose-induced inhibition of TTF-1 mRNA, qPCR [7, 12]: rescued; low glucose-induced reduction in FOXA2 protein, western blot [7, 12]: rescued; low glucose-induced reduction in TTF1 protein, western blot [7, 12]: rescued; HIF1α and HIF2α protein, western blot, control condition ([8]; A549, cells growing in low glucose (so in the source), dm-αKG): did not have any effect; H3K4 hyper-methylation, western blot on histone extracts [8, 13]: reverse; H3K9 hyper-methylation, western blot on histone extracts [8, 13]: reverse; H3K27 hyper-methylation, western blot on histone extracts [8, 13]: reverse; H3K27 hypo-acetylation, western blot on histone extracts [8, 13]: reverse; low glucose-induced increase of Slug, western blot [8, 13]: rescued; low glucose-induced reduction in Snail, western blot [8, 13]: partially rescued; low glucose-induced reduction in ZEB1, western blot [8, 13]: partially rescued; low glucose-induced repression of PHD3 expression, RT-PCR [8, 13]: rescued; low glucose-induced up-regulation of HIF1α mRNA, RT-PCR [8, 13]: rescued; low glucose-induced up-regulation of HIF1α protein, western blot [8, 13]: reversed; low glucose-induced up-regulation of HIF2α mRNA, RT-PCR [8, 13]: rescued; low glucose-induced up-regulation of HIF2α protein, western blot [8, 13]: reversed; GLUT1 expression, qPCR [8, 14]: reduced; low glucose-induced inhibition of FoxA2 mRNA, qPCR [8, 14]: rescued; low glucose-induced reduction in FOXA2 protein, western blot [8, 14]: rescued

Q: For `Cc1ccc([C@@H]2O[C@H](CO)[C@@H](O)[C@H](O)[C@H]2O)cc1Cc1ccc(-c2ccc(F)cc2)s1` [canagliflozin], which “development of LUAD” value [9] is on record?
A: Its value is “significantly delays”.

Q: And the survival [9]?
A: Its survival is “prolongs survival”.

Q: And the tumor growth [9]?
A: Its tumor growth is “reduces tumor growth”.
